Source: patent publication US20240398821A1, “FLAVONOID DERIVATIVES WITH GABAA RECEPTOR ACTIVITY AND METHODS OF USE” (RUTGERS, THE STATE UNIVERSITY OF NEW JERSEY, priority 2021, published 2024)
pEC50, pIC50: −log10 of the molar value.

Experiments:
[1] = biological target: T1, GABAA α1β2γ2L (Homo sapiens, UniProt P14867+P18507+P47870); test: SyncroPatch automated patch-clamp electrophysiology, PAM mode; assay type: cell-based; conditions: for Potency, α1βy, % in brackets: bracketed % beside EC50/IC50
T1 construct: expressed in transfected cells
T1 sequence (P14867 28-456): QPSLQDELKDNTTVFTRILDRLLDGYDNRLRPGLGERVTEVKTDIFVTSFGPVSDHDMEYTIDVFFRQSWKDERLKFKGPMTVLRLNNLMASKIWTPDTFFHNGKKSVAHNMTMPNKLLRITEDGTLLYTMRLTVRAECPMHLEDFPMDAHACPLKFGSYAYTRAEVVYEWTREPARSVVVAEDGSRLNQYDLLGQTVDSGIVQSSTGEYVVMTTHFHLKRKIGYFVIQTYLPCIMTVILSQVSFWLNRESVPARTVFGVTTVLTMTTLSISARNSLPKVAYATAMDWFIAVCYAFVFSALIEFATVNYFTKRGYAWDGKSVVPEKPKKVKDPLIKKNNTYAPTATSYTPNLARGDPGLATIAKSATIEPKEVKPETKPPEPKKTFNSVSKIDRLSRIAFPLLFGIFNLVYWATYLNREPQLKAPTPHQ
T1 sequence (P47870 25-512 limits assumed): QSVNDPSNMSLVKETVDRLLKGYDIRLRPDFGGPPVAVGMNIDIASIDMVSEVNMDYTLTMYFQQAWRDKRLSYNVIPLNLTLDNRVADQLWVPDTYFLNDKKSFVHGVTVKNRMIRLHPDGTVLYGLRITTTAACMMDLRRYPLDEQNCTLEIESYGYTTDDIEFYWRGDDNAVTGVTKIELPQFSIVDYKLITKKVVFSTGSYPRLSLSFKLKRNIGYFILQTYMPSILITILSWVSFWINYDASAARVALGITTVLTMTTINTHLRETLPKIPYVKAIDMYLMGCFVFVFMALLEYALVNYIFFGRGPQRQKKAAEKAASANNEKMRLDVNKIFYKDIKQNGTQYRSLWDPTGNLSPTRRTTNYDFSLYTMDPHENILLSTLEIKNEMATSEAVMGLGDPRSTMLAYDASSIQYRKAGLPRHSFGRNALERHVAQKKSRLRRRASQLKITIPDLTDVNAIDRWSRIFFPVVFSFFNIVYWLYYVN
T1 sequence (P18507 40-475): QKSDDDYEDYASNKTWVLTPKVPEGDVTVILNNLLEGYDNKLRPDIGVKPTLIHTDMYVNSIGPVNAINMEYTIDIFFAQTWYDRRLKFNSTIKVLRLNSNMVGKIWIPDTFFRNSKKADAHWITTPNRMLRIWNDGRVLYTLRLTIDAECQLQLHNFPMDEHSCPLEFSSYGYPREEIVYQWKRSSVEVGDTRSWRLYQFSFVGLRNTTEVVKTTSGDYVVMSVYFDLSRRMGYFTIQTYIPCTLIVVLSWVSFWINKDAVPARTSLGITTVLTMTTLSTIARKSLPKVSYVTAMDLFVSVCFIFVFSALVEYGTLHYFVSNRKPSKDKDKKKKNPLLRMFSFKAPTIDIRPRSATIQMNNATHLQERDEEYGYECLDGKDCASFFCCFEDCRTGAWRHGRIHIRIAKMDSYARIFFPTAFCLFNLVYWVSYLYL
Method: (§1) To evaluate GABAA receptor activity, compounds were evaluated with electrophysiology studies of against 4 GABAA subtypes (GABAA α1β2γ2L, α2θ3γ2L, α5θ3γ2L and α4θ3δ) in positive allosteric modulator (PAM) mode using the SyncroPatch automated platform at room temperature. […] The rapid addition protocol was used, in which compound is rapidly applied and then washed off from the cell. 0.3% DMSO was used as negative control.
(§2) Positive control: 5-point concentration-response curve of allopregnanolone ([…]).
(§3) Negative control: 0.3% DMSO
(§4) Each compound is tested across the plate with a single concentration per cell. A minimum of 2 wells are obtained per each concentration.
(§5) Powder stocks and DMSO stocks are stored at room temperature (in the dark). The powder stocks are diluted to 3 mM in 100% DMSO on the day of experiment.
(§6) SyncroPatch specific solutions are used throughout the assay. DMSO remains constant at 0.3% in the external solution throughout the assay.
(§7) The rapid addition protocol is used, in which compound is rapidly applied and then washed off from the cell. […] After a further wash step, maximum GABA (10 mM) is applied.
(§8) The voltage protocol generation and data collection are performed with PatchController384 V1.9.0 and Data Controller V1.9.0.
(§9) The fold increase is generated using the following equation, (Icomp/Icontrol)−1, where Icomp is the current amplitude in the presence of the compound and Icontrol is the current amplitude in the presence of agonist alone. […] The % Emax relative to Allopregnanolone is generated using the following equation, • [(IMaxComp/IAveMaxCtrl)*100], where IMaxComp is the individual maximum fold increase in current for each compound and IAveMaxCtrl is the average maximum fold increase generated in the presence of the control, allopregnanolone.
(§10) After a further wash step, maximum GABA (10 mM) was applied. Allopregnanolone was utilized as a positive control.

[2] = biological target: T2, GABAA α4θ3δ (Homo sapiens, UniProt O14764+P28472+P48169); test: as above; assay type: cell-based; conditions: for Potency, α4βδ (also printed α4βy), % in brackets: bracketed % beside EC50/IC50
T2 construct: expressed in transfected cells
T2 sequence (P48169 36-554): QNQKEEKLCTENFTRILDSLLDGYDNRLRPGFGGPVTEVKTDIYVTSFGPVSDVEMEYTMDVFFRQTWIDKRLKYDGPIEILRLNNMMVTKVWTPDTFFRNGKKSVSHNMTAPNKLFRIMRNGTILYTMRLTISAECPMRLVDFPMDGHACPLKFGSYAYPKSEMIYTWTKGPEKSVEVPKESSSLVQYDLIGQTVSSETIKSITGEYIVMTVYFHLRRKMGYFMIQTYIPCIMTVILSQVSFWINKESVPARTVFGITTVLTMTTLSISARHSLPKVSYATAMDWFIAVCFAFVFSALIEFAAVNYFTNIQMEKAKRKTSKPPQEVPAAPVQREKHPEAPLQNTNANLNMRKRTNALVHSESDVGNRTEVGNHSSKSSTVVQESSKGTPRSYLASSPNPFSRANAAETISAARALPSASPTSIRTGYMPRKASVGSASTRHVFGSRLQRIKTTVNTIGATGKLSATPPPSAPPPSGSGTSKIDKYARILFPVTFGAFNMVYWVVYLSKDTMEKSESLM
T2 sequence (P28472 26-473): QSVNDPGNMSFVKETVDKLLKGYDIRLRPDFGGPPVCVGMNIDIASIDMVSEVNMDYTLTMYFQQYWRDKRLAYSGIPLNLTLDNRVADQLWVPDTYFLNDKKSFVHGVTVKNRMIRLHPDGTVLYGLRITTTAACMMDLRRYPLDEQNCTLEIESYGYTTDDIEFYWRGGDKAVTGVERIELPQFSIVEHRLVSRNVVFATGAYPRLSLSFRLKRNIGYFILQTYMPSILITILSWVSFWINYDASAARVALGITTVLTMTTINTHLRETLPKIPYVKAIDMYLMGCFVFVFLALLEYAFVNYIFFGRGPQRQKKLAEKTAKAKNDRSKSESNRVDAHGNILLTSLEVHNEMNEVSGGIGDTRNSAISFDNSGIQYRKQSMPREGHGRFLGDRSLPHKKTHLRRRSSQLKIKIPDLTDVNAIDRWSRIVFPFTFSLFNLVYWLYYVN
T2 sequence (O14764 17-452 limits assumed): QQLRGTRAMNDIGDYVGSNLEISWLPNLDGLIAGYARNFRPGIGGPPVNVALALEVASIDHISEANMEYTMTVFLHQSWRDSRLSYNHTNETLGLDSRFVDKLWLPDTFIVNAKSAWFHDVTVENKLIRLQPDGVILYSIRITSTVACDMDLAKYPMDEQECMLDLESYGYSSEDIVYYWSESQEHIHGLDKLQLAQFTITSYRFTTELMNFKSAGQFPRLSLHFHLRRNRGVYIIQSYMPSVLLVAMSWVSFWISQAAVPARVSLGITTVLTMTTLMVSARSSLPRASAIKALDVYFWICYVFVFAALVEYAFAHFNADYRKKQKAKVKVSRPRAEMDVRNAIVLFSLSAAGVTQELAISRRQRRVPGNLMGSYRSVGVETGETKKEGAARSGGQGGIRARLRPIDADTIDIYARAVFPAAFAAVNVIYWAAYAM
Method: as §1, §2, §3, §4, §5, §6, §7, §8, §9, §10

[3] = biological target: T3, GABAA α2θ3γ2L (Homo sapiens, UniProt P18507+P28472+P47869); test: as above; assay type: cell-based; conditions: for Potency, α2βy, *EC50 / pEC50: PAM mode, GABA EC10-20, 6-point curve up to 10 μM, EC50 called extrapolated; for pEC50: read-out: Potency, α2βy, *EC50; for Potency, α2βy, % in brackets: bracketed % beside EC50/IC50
T3 construct: expressed in transfected cells
T3 sequence (P47869 29-451): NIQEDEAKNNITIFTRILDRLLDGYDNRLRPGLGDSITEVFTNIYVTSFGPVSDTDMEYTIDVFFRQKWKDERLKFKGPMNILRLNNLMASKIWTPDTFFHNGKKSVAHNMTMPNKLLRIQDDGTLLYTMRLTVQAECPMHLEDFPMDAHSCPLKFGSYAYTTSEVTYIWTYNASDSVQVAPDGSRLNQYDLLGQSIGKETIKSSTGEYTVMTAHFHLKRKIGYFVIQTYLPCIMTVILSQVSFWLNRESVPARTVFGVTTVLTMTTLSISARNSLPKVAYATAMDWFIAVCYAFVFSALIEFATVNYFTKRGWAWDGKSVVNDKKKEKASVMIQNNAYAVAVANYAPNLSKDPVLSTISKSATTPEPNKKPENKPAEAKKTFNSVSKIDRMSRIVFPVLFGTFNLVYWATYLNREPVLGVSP
T3 sequence (P28472 26-473): as the sequence (P28472 26-473) above
T3 sequence (P18507 40-475): as the sequence (P18507 40-475) above
Method: (§11) To evaluate GABAA receptor activity, compounds were evaluated with electrophysiology studies of against 4 GABAA subtypes (GABAA α1β2γ2L, α2θ3γ2L, α5θ3γ2L and α4θ3δ) in positive allosteric modulator (PAM) mode using the SyncroPatch automated platform at room temperature. A 6-point concentration-response curve of each test compound (10, 1, 0.1, 0.01, 0.001, or 0.0001 μM in DMSO). The rapid addition protocol was used, in which compound is rapidly applied and then washed off from the cell. 0.3% DMSO was used as negative control.
(§12) Test compounds: 6-point concentration-response curve of each test compound (10, 1, 0.1, 0.01, 0.001, 0.0001 μM in DMO).
as §2, §3, §4, §5, §6
(§13) The rapid addition protocol is used, in which compound is rapidly applied and then washed off from the cell. To test for PAM activity, the agonist GABA EC10-20 is applied three times (with wash steps in-between) as a control and to show activation reproducibility, followed by a 1 to 2 minute pre-incubation of client compound and then re-application of GABA EC10-20 in the presence of client compound. After a further wash step, maximum GABA (10 mM) is applied.
(§14) Automated patch clamp-recordings are performed using the SyncroPatch 384i. The voltage protocol generation and data collection are performed with PatchController384 V1.9.0 and Data Controller V1.9.0.
as §9, with “alone. This builds an EC50 concentration-response curve, where 0 represents no PAM activity and >0 represents PAM activity.” for “alone.”
(§15) To test for PAM activity, the agonist GABA EC 10-20 was applied three times (with wash steps in-between) as a control and to show activation reproducibility, followed by a 1 to 2 minutes pre-incubation of client compound and then re-application of GABA EC 10-20 in the presence of client compound. After a further wash step, maximum GABA (10 mM) was applied. Allopregnanolone was utilized as a positive control. FIGS. 5A and 5B show for dose response of EC2-118 in comparison to that of allopregnanolone (positive control).

[4] = biological target: T4, GABAA α5θ3γ2L (Homo sapiens, UniProt P18507+P28472+P31644); test: as above; assay type: cell-based
T4 construct: expressed in transfected cells
T4 sequence (P31644 32-462): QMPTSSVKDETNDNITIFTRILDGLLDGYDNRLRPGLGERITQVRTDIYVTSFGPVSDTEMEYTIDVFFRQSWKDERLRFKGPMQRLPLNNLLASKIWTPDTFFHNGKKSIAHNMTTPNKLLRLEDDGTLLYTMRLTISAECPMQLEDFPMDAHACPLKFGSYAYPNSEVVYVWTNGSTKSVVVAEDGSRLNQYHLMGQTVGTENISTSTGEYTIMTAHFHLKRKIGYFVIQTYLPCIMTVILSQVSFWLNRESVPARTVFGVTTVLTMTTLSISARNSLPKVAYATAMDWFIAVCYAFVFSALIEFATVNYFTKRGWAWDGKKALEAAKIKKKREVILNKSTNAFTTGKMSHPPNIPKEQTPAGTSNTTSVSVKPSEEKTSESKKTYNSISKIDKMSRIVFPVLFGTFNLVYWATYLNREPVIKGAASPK
T4 sequence (P28472 26-473): as the sequence (P28472 26-473) above
T4 sequence (P18507 40-475): as the sequence (P18507 40-475) above
Method: as §11, §12, §2, §3, §4, §5, §6, §13, §14
as §9, with “alone. This builds an EC50 concentration-response curve, where 0 represents no PAM activity and >0 represents PAM activity.” for “alone.”
as §15

[5] = test system: GABAA receptor; test: Preliminary classification of GABAAR modulation from electrophysiology against 4 GABAA subtypes; assay type: cell-based; conditions: from the four subtype results
From the text: As an assessment for potential anxiolytic activity, compounds were screened for in vitro GABAA receptor activity utilizing electrophysiology studies. This is a well-established method of assessing activity of GABAA receptor positive allosteric modulators (PAMs) with known anxiolytic activity. The link between anxiolytic and sedative activity associated with α1/2/3βγ GABAAR subtypes is also well-established by previous studies. and there is a well-established history of clinical efficacy, utility, and risks associated with the use of full GABAAR PAMs [i.e. benzodiazepines (BZDs)] in the treatment of anxiety and seizure disorders.
as §11
The fold increase is generated using the following equation, (Icomp/Icontrol)−1, where Icomp is the current amplitude in the presence of the compound and Icontrol is the current amplitude in the presence of agonist alone. This builds an EC50 concentration-response curve, where 0 represents no PAM activity and >0 represents PAM activity. If a “bell-shape curve” is observed at the higher concentrations, showing a reduction in activity in comparison to previous concentrations, then to allow for a more accurate curve fit, these concentrations are removed from the graphs where necessary and noted in the compound table. The % Emax relative to Allopregnanolone is generated using the following equation, • [(IMaxComp/IAveMaxCtrl)*100], where IMaxComp is the individual maximum fold increase in current for each compound and IAveMaxCtrl is the average maximum fold increase generated in the presence of the control, allopregnanolone.

[6] = test system: anxiety; test: Open field test (OFT) and elevated plus maze (EPM), IP administration; assay type: in vivo, rats
Method: FIG. 7 is a representation of rat movements during an open field test. Increased time in the open arms signifies anti-anxiety activity. […] The purple lines represent the motion of the rat.
In vivo studies in rats were conducted in the Bello laboratory as preliminary screening for activity of EC2-118. Male and female rats were exposed to an open field test (OFT) and elevated plus maze (EPM) 7 days apart (Kshatriya et al., 2020). Each group (n=8/group, […]) received IP injection 30 min prior to IP dosing of EC2-118 or vehicle control. We performed OFT and EPM in 52 adult SD rats (26 male/26 female). The groups were as follow vehicle (0.9% Saline, 4% Tween 80, and 4% DMSO; n=9 males; n=10 females), 3.95 mg/kg (n=10 males; n=8 females), 12.5 mg/kg (n=7 males, females n=8).

[7] = test system: loss-of-righting-reflex; test: Loss-of-righting-reflex (LORR), alone and with alcohol; assay type: in vivo; conditions: rats
Method: Rats were given EC2-118 (3.95 mg/kg IP) and alcohol (3 g/kg) and assessed for duration of loss-of-righting-reflex (LORR). […] The effects of EC2-118 (12.5 mg/kg IP) on alcohol-induced LORR were not determined.

[8] = PAM mode, GABA EC10-20, 6-point curve up to 10 μM
[9] = PAM mode, GABA EC10-20, 6-point curve up to 10 μM, EC50 called extrapolated

| Compound | pIC50 [1] | Potency, α1βy, % in brackets [1] | pIC50 [2] | Potency, α4βδ (also printed α4βy), % in brackets [2] | Potency, α2βy, *EC50 [3] | Potency, α5βy, *EC50 [4, 8] | Preliminary Classification of type of GABAAR modulation [5] | Potency, α1βy, *EC50 [1, 9] | Potency, α4βδ (also printed α4βy), *EC50 [2, 8] | pEC50 ([4]; PAM mode, GABA EC10-20, 6-point curve up to 10 μM, read-out: Potency, α5βy, *EC50) | Potency, α5βy, % in brackets ([4]; bracketed % beside EC50/IC50) | pEC50 ([2]; PAM mode, GABA EC10-20, 6-point curve up to 10 μM, read-out: Potency, α4βδ (also printed α4βy), *EC50) | pEC50 [3] | Potency, α2βy, % in brackets [3] | pEC50 ([1]; PAM mode, GABA EC10-20, 6-point curve up to 10 μM, EC50 called extrapolated, read-out: Potency, α1βy, *EC50) | Anxiolytic effect in OFT and EPM vs vehicle control ([6]; 3.95 mg/kg IP, male and female SD rats, two-way ANOVA) | Effect in the open field test (OFT) ([6]; 12.5 mg/kg IP, rats) | Lethargy (observation) ([6]; 12.5 mg/kg IP, rats) | Impact on alcohol-induced LORR (duration) ([7]; 3.95 mg/kg IP with alcohol 3 g/kg) | Induction of LORR by compound alone ([7]; 3.95 mg/kg, 12.95 IP) |
| --- | --- | --- | --- | --- | --- | --- | --- | --- | --- | --- | --- | --- | --- | --- | --- | --- | --- | --- | --- | --- |
| O=c1cc(-c2cccc([N+](=O)[O-])c2)oc2ccc(Br)cc12 [6-bromo-3′-nitroflavone, reference compound] | 8.23 | −21% | < 5.00 | −30% | N.R. | N.R. | Partial α1 NAM | – | – | – | – | – | – | – | – | – | – | – | – | – |
| O=C1c2cc(Br)ccc2OC(c2ccccc2)C1(CO)CO (stereo not drawn) [EC2-52, 6-bromo-3,3-bis(hydroxymethyl)-2-phenylchroman-4-one] | – | – | – | – | N.R. | – | Partial α5 GABAAR PAM | N.R. | N.R. | 5.72 | +22% | – | – | – | – | – | – | – | – | – |
| O=C1c2ccccc2OC(c2cccc([N+](=O)[O-])c2)C1(CO)CO (stereo not drawn) [EC2-104, 3,3-bis(hydroxymethyl)-2-(3-nitrophenyl)chroman-4-one] | – | – | – | +30% | – | N.R. | Partial α2 GABAAR PAM | N.R. | – | – | – | < 5.00 | 4.93 | +28% | – | – | – | – | – | – |
| O=C1NC(c2cccc([N+](=O)[O-])c2)Nc2ccc(Br)cc21 (stereo not drawn) [EC2-117, 6-bromo-2-(3-nitrophenyl)-2,3-dihydroquinazolin-4(1H)-one] | – | – | – | – | α1 βy (N.R.) α2βy (N.R.) α5βy (N.R.) α4ßy (N.R.) | α1 βy (N.R.) α2βy (N.R.) α5βy (N.R.) α4ßy (N.R.) | Not active | α1 βy (N.R.) α2βy (N.R.) α5βy (N.R.) α4ßy (N.R.) | α1 βy (N.R.) α2βy (N.R.) α5βy (N.R.) α4ßy (N.R.) | – | – | – | – | – | – | – | – | – | – | – |
| O=C1NC(c2cccc([N+](=O)[O-])c2)Oc2ccc(Br)cc21 (stereo not drawn) [EC2-118, 6-bromo-2-(3-nitrophenyl)-2,3-dihydro-4H-benzo[e][1,3]oxazin-4-one] | – | +29% | – | – | – | N.R. | Partial α1/2 GABAAR PAM | – | N.R. | – | – | – | 6.90 | +26% | 6.87 | significant differences between 3.95 mg/kg dose and vehicle control | did not exhibit a significant effect | increased lethargy | did not have a significant impact on alcohol-induced LORR | did not induce an LORR |
| O=C1c2cc(Br)ccc2OC(c2cccc([N+](=O)[O-])c2)C1(CO)CO (stereo not drawn) [EC2-124] | – | – | – | – | α1ßy (N.R.) α2βy (N.R.) α5βy (N.R.) α4βy (N.R.) | α1ßy (N.R.) α2βy (N.R.) α5βy (N.R.) α4βy (N.R.) | Not Active | α1ßy (N.R.) α2βy (N.R.) α5βy (N.R.) α4βy (N.R.) | α1ßy (N.R.) α2βy (N.R.) α5βy (N.R.) α4βy (N.R.) | – | – | – | – | – | – | – | – | – | – | – |
